The results in this text go back to patent US20260132129A1 (Genesis Therapeutics, Inc., priority 2022, published 2026).

The target of the test is T1, PI3Kα H1047R (T47D cells) (Homo sapiens, UniProt P42336, H1047R).
T1 construct: endogenous in cells; host or cells: T47D cells
Nature of the test: PI3Kα cellular assay: pAKT HTRF in T47D cells after EGF stimulation. In kind it is cell-based. The note with it: for IC50: T47D cells (PI3Kα H1047R), pAKT S473 HTRF, EGF stimulation; for T47D pAKT S473 HTRF IC50 (H1047R): T47D (H1047R) selectivity over SKBR3 (WT): selectivity of T47D (H1047R) over SKBR3 (WT) pAKT IC50. Summed up: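 pAKT read by HTRF in lysates of EGF-stimulated (20 ng/mL, 10 min) T47D H1047R cells. Before stimulation, serum-starved cells (16 h) received compound for 1 h at 37 °C, dosed from 10,000 nM down to 0.5 nM in 3-fold steps.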

Structures are written as SMILES.

T1 sequence (P42336 whole entry H1047R): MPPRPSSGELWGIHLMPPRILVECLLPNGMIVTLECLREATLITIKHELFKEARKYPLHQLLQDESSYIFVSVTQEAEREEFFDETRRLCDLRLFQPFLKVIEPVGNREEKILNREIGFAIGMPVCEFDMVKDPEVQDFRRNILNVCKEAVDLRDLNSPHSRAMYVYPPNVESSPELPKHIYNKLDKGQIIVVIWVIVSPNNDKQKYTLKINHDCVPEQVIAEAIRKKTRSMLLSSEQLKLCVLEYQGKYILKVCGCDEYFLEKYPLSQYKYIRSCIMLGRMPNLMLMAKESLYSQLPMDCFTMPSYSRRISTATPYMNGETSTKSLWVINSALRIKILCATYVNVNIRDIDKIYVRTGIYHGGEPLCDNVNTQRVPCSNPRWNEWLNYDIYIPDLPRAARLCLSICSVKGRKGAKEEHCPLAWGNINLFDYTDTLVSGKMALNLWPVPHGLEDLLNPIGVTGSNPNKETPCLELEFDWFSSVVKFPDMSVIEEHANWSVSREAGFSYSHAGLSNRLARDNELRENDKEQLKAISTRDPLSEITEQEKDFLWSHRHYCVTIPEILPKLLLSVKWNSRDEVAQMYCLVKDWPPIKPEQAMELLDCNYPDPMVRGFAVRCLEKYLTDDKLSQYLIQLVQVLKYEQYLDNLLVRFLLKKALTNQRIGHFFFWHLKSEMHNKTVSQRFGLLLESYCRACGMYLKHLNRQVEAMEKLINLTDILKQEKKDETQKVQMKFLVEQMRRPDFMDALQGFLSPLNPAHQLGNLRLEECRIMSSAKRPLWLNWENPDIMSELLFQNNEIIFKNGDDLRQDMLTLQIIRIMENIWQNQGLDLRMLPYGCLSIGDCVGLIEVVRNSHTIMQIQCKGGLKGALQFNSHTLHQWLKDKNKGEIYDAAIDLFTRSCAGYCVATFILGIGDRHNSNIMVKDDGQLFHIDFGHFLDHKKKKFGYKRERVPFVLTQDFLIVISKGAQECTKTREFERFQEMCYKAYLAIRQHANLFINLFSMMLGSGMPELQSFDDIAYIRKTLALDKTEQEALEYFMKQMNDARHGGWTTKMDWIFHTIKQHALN
T1 sequence (P27986 whole entry partner): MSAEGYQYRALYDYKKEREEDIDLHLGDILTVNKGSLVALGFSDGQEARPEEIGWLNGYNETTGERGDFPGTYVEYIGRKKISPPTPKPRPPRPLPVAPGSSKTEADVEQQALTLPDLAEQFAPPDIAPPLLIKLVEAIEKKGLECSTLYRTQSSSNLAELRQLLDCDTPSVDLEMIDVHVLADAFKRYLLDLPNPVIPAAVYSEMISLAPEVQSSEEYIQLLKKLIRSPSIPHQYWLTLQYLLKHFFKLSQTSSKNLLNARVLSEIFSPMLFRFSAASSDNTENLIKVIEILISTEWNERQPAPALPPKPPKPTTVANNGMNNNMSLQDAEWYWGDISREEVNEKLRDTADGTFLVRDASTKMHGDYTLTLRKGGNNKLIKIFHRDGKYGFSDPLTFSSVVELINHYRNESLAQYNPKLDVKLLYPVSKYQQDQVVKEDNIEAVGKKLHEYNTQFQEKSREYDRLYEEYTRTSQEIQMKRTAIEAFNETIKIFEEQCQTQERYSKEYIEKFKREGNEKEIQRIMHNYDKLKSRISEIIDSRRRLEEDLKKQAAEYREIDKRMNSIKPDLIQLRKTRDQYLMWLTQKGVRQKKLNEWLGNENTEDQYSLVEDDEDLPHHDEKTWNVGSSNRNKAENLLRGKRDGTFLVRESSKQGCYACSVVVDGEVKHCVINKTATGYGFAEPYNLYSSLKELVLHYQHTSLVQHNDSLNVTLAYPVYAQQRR

For `Cc1cc([C@@H](C)Nc2ccccc2C(=O)O)c2nc(-c3ccc4c(c(N)nn4C)c3C)cc(=O)n2c1` [Compound 702], the IC50 lay in the range of 500 to 2000 nM and the “T47D pAKT S473 HTRF IC50 (H1047R): T47D (H1047R) selectivity over SKBR3 (WT)” value is “B (B denotes 20-fold≥value>5-fold)”.

Regarding `Cc1cc([C@H](C)Nc2ccccc2C(=O)O)c2nc(-c3ccc4c(c(N)nn4C)c3C)cc(=O)n2c1` [Compound 703], the IC50 is greater than 2000 nM and the “T47D pAKT S473 HTRF IC50 (H1047R): T47D (H1047R) selectivity over SKBR3 (WT)” value was “C (C denotes ≤5-fold)”.

In the case of `Cc1cc([C@@H](C)Nc2ccccc2C(=O)O)c2nc(-c3cc4c(N)nn(C)c4cc3C)cc(=O)n2c1` [Compound 704], the IC50 is greater than 2000 nM and the “T47D pAKT S473 HTRF IC50 (H1047R): T47D (H1047R) selectivity over SKBR3 (WT)” value was “C (C denotes ≤5-fold)”.

`Cc1cc([C@H](C)Nc2ccccc2C(=O)O)c2nc(-c3cc4c(N)nn(C)c4cc3C)cc(=O)n2c1` [Compound 705]: the IC50 was greater than 2000 nM and the “T47D pAKT S473 HTRF IC50 (H1047R): T47D (H1047R) selectivity over SKBR3 (WT)” value is “C (C denotes ≤5-fold)”.

With `Cc1cc(C(C)Nc2ccccc2C(=O)O)c2nc(-c3ccc4c(c(N)nn4C)c3C)c(C)c(=O)n2c1` (stereo not shown) [Compound 706], the IC50 was in the range of 500 to 2000 nM and the “T47D pAKT S473 HTRF IC50 (H1047R): T47D (H1047R) selectivity over SKBR3 (WT)” value is given as “B (B denotes 20-fold≥value>5-fold)”.

For `Cc1cc([C@H](C)Nc2ccccc2C(=O)O)c2nc(N3C[C@@H](C)C(F)(F)[C@@H](C)C3)cc(=O)n2c1` [Compound 712, 2-(((S)-1-(2-((3S,5R)-4,4-difluoro-3,5-dimethylpiperidin-1-yl)-7-methyl-4-oxo-4H-pyrido[1,2-a]pyrimidin-9-yl)ethyl)amino)benzoic acid], the IC50 was greater than 2000 nM and the “T47D pAKT S473 HTRF IC50 (H1047R): T47D (H1047R) selectivity over SKBR3 (WT)” value is “C (C denotes ≤5-fold)”.

Regarding `Cc1cc([C@H](C)Nc2cccc3c2C(=O)NCC3)c2nc(N3CCOCC3)cc(=O)n2c1` [Compound 714], the “T47D pAKT S473 HTRF IC50 (H1047R): T47D (H1047R) selectivity over SKBR3 (WT)” value was “C (C denotes ≤5-fold)”.

For the compound `Cc1cc([C@@H](C)Nc2ccccc2-c2ccnnc2)c2nc(C3Cc4ccccc4C3)cc(=O)n2c1` [Compound 718], the “T47D pAKT S473 HTRF IC50 (H1047R): T47D (H1047R) selectivity over SKBR3 (WT)” value is “C (C denotes ≤5-fold)”.

For the compound `Cc1cc(C(C)Nc2ccccc2C(=O)O)c2nc(-c3ccc4c(c(N)nn4C)c3C)c(C)c(=O)n2c1` (stereo not shown) [Compound 720], the IC50 was in the range of 500 to 2000 nM and the “T47D pAKT S473 HTRF IC50 (H1047R): T47D (H1047R) selectivity over SKBR3 (WT)” value was “B (B denotes 20-fold≥value>5-fold)”.

`Cc1cc(C(C)Nc2ccccc2C(=O)O)c2nc(-c3ccc(F)cc3)c(C)c(=O)n2c1` (stereo not shown) [Compound 721] registered an IC50 of 100 to 500 nM.

As for `CCn1nc(N)c2cc(-c3cc(=O)n4cc(C)cc([C@@H](C)Nc5ccccc5C(=O)O)c4n3)ccc21` [Compound 722], the IC50 was less than 100 nM and the “T47D pAKT S473 HTRF IC50 (H1047R): T47D (H1047R) selectivity over SKBR3 (WT)” value was “A (A denotes >20-fold)”.

For `CCn1nc(N)c2c(C)c(-c3cc(=O)n4cc(C)cc([C@H](C)Nc5ccccc5C(=O)O)c4n3)ccc21` [Compound 723], the IC50 was greater than 2000 nM and the “T47D pAKT S473 HTRF IC50 (H1047R): T47D (H1047R) selectivity over SKBR3 (WT)” value is “C (C denotes ≤5-fold)”.

As for `Cc1cc(C(C)Nc2ccccc2C(=O)O)c2nc(-c3ccc4c(c3)c(C(F)(F)F)nn4C)cc(=O)n2c1` (stereo not shown) [Compound 724], the IC50 was 100 to 500 nM and the “T47D pAKT S473 HTRF IC50 (H1047R): T47D (H1047R) selectivity over SKBR3 (WT)” value was “A (A denotes >20-fold)”.

As for `Cc1cc(C(C)Nc2ccccc2C(=O)O)c2nc(-c3ccc4c(c3)c(C)nn4C)cc(=O)n2c1` (stereo not shown) [Compound 725], the IC50 was less than 100 nM and the “T47D pAKT S473 HTRF IC50 (H1047R): T47D (H1047R) selectivity over SKBR3 (WT)” value is listed as “A (A denotes >20-fold)”.

Consider `Cc1cc(C(C)Nc2ccccc2C(=O)O)c2nc(-c3ccc4c(c3)CCN4CC(N)=O)cc(=O)n2c1` (stereo not shown) [Compound 726], for which the “T47D pAKT S473 HTRF IC50 (H1047R): T47D (H1047R) selectivity over SKBR3 (WT)” value is recorded as “B (B denotes 20-fold≥value>5-fold)”.

Consider `Cc1cc([C@@H](C)Nc2ccccc2C(=O)O)c2nc(N3CCC(C)(C)CC3)cc(=O)n2c1` [Compound 727], for which the IC50 is greater than 2000 nM and the “T47D pAKT S473 HTRF IC50 (H1047R): T47D (H1047R) selectivity over SKBR3 (WT)” value was “C (C denotes ≤5-fold)”.
